Measured values published in patent publication US7645882B2, “Inhibitor of protein modification products formation” (priority 2003, dated 2010).

Test system: pentosidine
Assay: Pentosidine production inhibiting effect with BSA and arabinose
Assay type: biochemical
Details: BSA and arabinose instead of plasma
Experimental: Fresh heparinized plasma samples were obtained after informed consent from hemodialysis patients prior to the dialysis session, and filtrated and sterilized. To the plasma (450 μL), there was added the solution of TM-2002 in dimethylsurphoxide (50 μL) (final concentration: 0.8, 2.0, 5.0 mM) incubated at 37° C. for one week. Then, the amount of pentosidine was measured.
Measurement of the amount of pentosidine was made as follows: to each incubated sample (50 μL) was added an equal volume of 10% trichloroacetic acid, followed by centrifugation at 5000 g for 5 minutes; after removal of the supernatant, the pellet was washed by 5% trichloroacetic acid (300 μL); the pellet was dried under reduced pressure and then subjected to hydrolysis in 6N HCl solution (100 μL) at 110° C. under nitrogen atmosphere for 16 hours; to the hydrolysate, 5N NaOH (100 μL) and 0.5 M phosphate buffer (pH 7.4) (200 μL) were added, followed by filtration through a porefilter with a pore size of 0.5 μm and dilution with PBS. The concentration of free pentosidine was determined by reversed-phase HPLC using a fluorescence detector (Miyata, T. et al.: Proc. Natl. Acad. Sci. USA, Vol. 93, p. 2353-2358, 1996). The effluent was monitored at 335/385 nm of excitation/emission wavelength. Synthetic pentosidine was used as the standard. The detection limit of pentosidine was 0.1 pmol/mg protein.
The plasma from patients was substituted to BSA and arabinose, and the pentosidine production inhibiting effect of another compounds (I) or (II) was measured in the same manner as [Test Examination 1]. Therein, “-” means that the examination was not carried out.

SMILES	Pentosidine production rate in 5 mM of medicament (%)
CC1=NN(c2ccccc2)C(=O)C1CCC(=O)O (stereo not shown) [compound 7, 3-(3-methyl-5-oxo-1-penyl-4,5-dihydro-1H-pyrazol-4-yl)-propionic acid]	64.64%
CC1=NN(c2ccccc2)C(=O)C1C(c1ccccc1)c1c(C)nn(-c2ccccc2)c1O (stereo not shown) [compound 9, 4-[(5-hydroxy-3-methyl-1-phenyl-1H-pyrazol-4-yl)-phenyl-methyl]-5-methyl-2-phenyl-2,4-dihydro-pyrazol-3-one]	7.52%
CC(=O)NC1C(=O)N(c2ccccc2)N=C1C (stereo not shown) [compound 12, N-(3-methyl-5-oxo-1-phenyl-4,5-dihydro-1H-pyrazol-4-yl)-acetamide]	54.21%
CC1=NN(c2cccc([N+](=O)[O-])c2)C(=O)C1Sc1nnnn1-c1ccccc1 (stereo not shown) [compound 13, 5-methyl-2-(3-nitro-phenyl)-4-(1-phenyl-1H-tetrazol-5-yl-sulfanil)-2,4-dihydro-pyrazol-3-one]	74.66%
O=C(NC1=NN(c2ccccc2)C(=O)C1Sc1nnnn1-c1ccccc1)c1ccccc1 (stereo not shown) [compound 14, N-[5-oxo-1-phenyl-4-(1-phenyl-1H-tetrazol-5-yl-sulfanil)-4,5-dihydro-1H-pyrazol-3-yl]-benzamide]	61.27%
CC1=NN(c2ccccc2)C(=O)C1C1C(=O)N(c2ccccc2)N=C1C (stereo not shown) [compound 17, 5,5′-dimethyl-2,2′-diphenyl-2,4,2′,4′-tetrahydro-[4,4′]-bipyrazol-3,3′-dione]	60.96%
COc1ccc(-c2csc(SC3C(=O)N(c4ccccc4)N=C3C)n2)cc1 (stereo not shown) [compound 19, 4-[4-(4-methoxy-phenyl)-thiazole-2-yl-sulfanil]-5-methyl-2-phenyl-2,4-dihydro-pyrazol-3-one]	40.19%
CCCC1=NN(c2ccccc2)C(=O)C1CC(=O)c1ccccc1 (stereo not shown) [compound 20, 4-(2-oxo-2-phenyl-ethyl)-2-phenyl-5-propyl-2,4-dihydro-pyrazol-3-one]	83.12%
CC1=NN(c2ccccc2)C(=O)C1Sc1nc(-c2ccc(C)cc2)cs1 (stereo not shown) [compound 21, 5-methyl-2-phenyl-4-(4-p-toluyl-thiazole-2-yl-sulfanil)-2,4-dihydro-pyrazol-3-one]	42.07%
CC1=NN(c2ccc(F)cc2)C(=O)C1C(c1ccccc1O)c1c(C)nn(-c2ccc(F)cc2)c1O (stereo not shown) [compound 22, 2-(4-fluoro-phenyl)-4-[[1-(4-fluoro-phenyl)-5-hydroxy-3-methyl-1H-pyrazol-4-yl]-(2-hydroxy-phenyl)-methyl]-5-methyl-2,4-dihydro-pyrazol-3-one]	2.9%
CC1=NN(c2ccccc2)C(=O)C1(O)S(=O)(=O)[O-].[Na+] (stereo not shown) [compound 25, sodium; 4-hydroxy-3-methyl-5-oxo-1-phenyl-4,5-dihydro-1H-pyrazol-4-sulfonate]	38.80%
CC1=NN(c2ccccc2)C(=O)C1(N1CCOCC1)N1CCOCC1 [compound 26, 5-methyl-4,4-di-morpholin-4-yl-2-phenyl-2,4-dihydro-pyrazol-3-one]	50.68%
O=C(NC1=NN(c2ccccc2)C(=O)C1(O)S(=O)(=O)[O-])c1ccccc1.[Na+] (stereo not shown) [compound 27, sodium 3-benzoylamino-4-hydroxy-5-oxo-1-phenyl-4,5-dihydro-1H-pyrazol-4-sulfonate]	2.83%
CC1=NN(c2ccccc2)C(=O)C12Sc1ccccc1C2=O (stereo not shown) [compound 28, 3-methyl-1-phenyl-5-oxo-4-spiro-(3-oxo-2,3-dihydro-benzo[b]thiophen-2-yl)-4,5-dihydro-1H-pyrazol]	22.83%
CC1=NN(c2ccccc2)C(=O)C12C(c1ccccc1)C21C(=O)N(c2ccccc2)N=C1C (stereo not shown) [compound 30, 4,10-dimethyl-2,8,11-triphenyl-2,3,8,9-tetraza-dispiro[4.0.4.1]undeca-3,9-diene-1,7-dione]	62.43%
CCOc1cc(/C=C2/C(=O)N(c3ccccc3Cl)N=C2C)ccc1O [compound 31, 2-(2-chloro-phenyl)-4-(3-ethoxy-4-hydroxy-benzylidene)-5-methyl-2,4-dihydro-pyrazol-3-one]	15.57%

SMILES	Pentosidine production rate in 5 mM of medicament (%)
CC1=NN(c2ccccc2Cl)C(=O)/C1=C/c1ccc(N(C)C)cc1 [compound 32, 2-(2-chloro-phenyl)-4-(4-dimethylamino-benzylidene)-5-methyl-2,4-dihydro-pyrazol-3-one]	8.7%
CC1=NN(c2cccc(C(F)(F)F)c2)C(=O)/C1=C/C=C/c1ccccc1 [compound 33, 5-methyl-4-(3-phenyl-allylidene)-2-(3-trifluoromethyl-phenyl)-2,4-dihydro-pyrazol-3-one]	80.08%
CC1=NN(c2cccc(F)c2)C(=O)/C1=C\c1ccc(N(C)C)cc1 [compound 35, 4-(4-dimethylamino-benzylidene)-2-(3-fluoro-phenyl)-5-methyl-2,4-dihydro-pyrazol-3-one]	76.31%
CC1=NN(c2cccc(C(=O)O)c2)C(=O)/C1=C\c1ccc(N2CCC(Cl)=N2)cc1 [compound 36, 3-{4-[4-(3-chloro-4,5-dihydro-pyrazol-1-yl)-benzylidene]-3-methyl-5-oxo-4,5-dihydro-pyrazol-1-yl}-benzoic acid]	26.37%
O=C(O)c1cccc(N2N=C(c3ccccc3)/C(=C/c3ccccc3O)C2=O)c1 [compound 37, 3-[4-(2-hydroxy-benzylidene)-5-oxo-3-phenyl-4,5-dihydro-pyrazol-1-yl]-benzoic acid]	0.02%
CC1=NN(c2cccc(Cl)c2)C(=O)/C1=C/c1cc2ccccc2[nH]c1=O [compound 38, 3-[1-(3-chloro-phenyl)-3-methyl-5-oxo-1,5-dihydro-pyrazol-4-ylidene-methyl]-1H-quinolin-2-one]	84.95%
COC(=O)c1cccc(-c2ccc(/C=C3\C(=O)N(c4ccc(S(N)(=O)=O)cc4)N=C3C)o2)c1 [compound 39, 3-{5-[3-methyl-5-oxo-1-(4-sulfamoyl-phenyl)-1,5-dihydro-pyrazol-4-ylidene-methyl]-furan-2-yl}-benzoic acid-methyl ester]	16.87%
COC(=O)c1ccc(N2N=C(C)/C(=C/c3ccc4c(c3)OCO4)C2=O)cc1 [compound 40, 4-(4-benzo[1,3]dioxol-5-ylmethylene-3-methyl-5-oxo-4,5-dihydro-pyrazol-1-yl)-benzoic acid-methyl ester]	32.37%
COC(=O)c1ccc(N2N=C(C)/C(=C/c3ccc(-c4ccc(S(N)(=O)=O)cc4)o3)C2=O)cc1 [compound 41, 4-{3-methyl-5-oxo-4-[5-(4-sulfamoyl-phenyl)-furan-2-yl-methylene]-4,5-dihydro-pyrazol-1-yl}-benzoic acid-methyl ester]	37.81%
CC1=NN(c2ccc(Cl)cc2)C(=O)/C1=C/c1ccc(O)cc1O [compound 42, 2-(4-chloro-phenyl)-4-(2,4-dihydroxy-benzylidene)-5-methyl-2,4-dihydro-pyrazol-3-one]	68.32%
CC1=NN(c2ccc(Cl)cc2)C(=O)/C1=C/c1cccc(O)c1 [compound 43, 2-(4-chloro-phenyl)-4-(3-hydroxy-benzylidene)-5-methyl-2,4-dihydropyrazol-3-one]	3.00%
CC1=NN(c2ccc(C)cc2)C(=O)/C1=C/c1ccc(O)c(O)c1 [compound 44, 4-(3,4-dihydroxy-benzylidene)-5-methyl-2-p-toluyl-2,4-dihydro-pyrazol-3-one]	66.19%
CC(=O)c1ccc(N2N=C(C)/C(=C3\C(=O)Nc4ccccc43)C2=O)cc1 [compound 45, 3-[1-(4-acetyl-phenyl)-3-methyl-5-oxo-1,5-dihydro-pyrazol-4-ylidene]-1,3-dihydro-indol-2-one]	19.22%
CC1=NN(c2ccc(F)cc2)C(=O)/C1=C\c1c(C)nn(-c2ccccc2C)c1O [compound 46, 2-(4-fluoro-phenyl)-4-(5-hydroxy-3-methyl-1-o-toluyl-1H-pyrazol-4-yl-methylene)-5-methyl-2,4-dihydro-pyrazol-3-one]	15.69%
COc1cc(/C=C2\C(=O)N(c3ccc(Cl)cc3)N=C2C(F)(F)F)ccc1O [compound 47, 2-(4-chloro-phenyl)-4-(4-hydroxy-3-methoxy-benzylidene)-5-trifluoromethyl-2,4-dihydro-pyrazol-3-one]	28.86%
